Molecular target: Beta-1 adrenergic receptor (Rattus norvegicus) (UniProt P18090)
Details: Heart
Description: Beta-1 adrenergic receptor agonist activity as increased heart rate by 30 beats/min in rats

Chain of Beta-1 adrenergic receptor (Rattus norvegicus) (P18090 whole entry, looked up): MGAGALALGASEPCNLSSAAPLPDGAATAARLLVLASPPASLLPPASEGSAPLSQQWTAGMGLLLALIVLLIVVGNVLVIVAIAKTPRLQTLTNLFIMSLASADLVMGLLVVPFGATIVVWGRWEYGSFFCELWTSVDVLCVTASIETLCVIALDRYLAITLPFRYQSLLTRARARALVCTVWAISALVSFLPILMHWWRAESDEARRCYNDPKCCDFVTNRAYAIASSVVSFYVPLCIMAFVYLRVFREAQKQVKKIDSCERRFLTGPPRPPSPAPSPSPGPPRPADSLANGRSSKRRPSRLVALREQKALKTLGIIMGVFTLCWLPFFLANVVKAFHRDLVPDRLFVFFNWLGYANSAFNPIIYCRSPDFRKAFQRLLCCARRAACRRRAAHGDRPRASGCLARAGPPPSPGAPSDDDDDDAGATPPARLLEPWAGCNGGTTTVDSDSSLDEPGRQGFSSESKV

SMILES | ED30
CC(=O)c1cccc2cc([C@@H](O)CNC(C)(C)C)oc12 | 0.6 µg/kg
CC(=O)c1cccc2cc([C@H](O)CNC(C)(C)C)oc12 | 32 µg/kg
CCc1cccc2cc([C@@H](O)CNC(C)(C)C)oc12 | 53 µg/kg
CCc1cccc2cc([C@H](O)CNC(C)(C)C)oc12 | > 1000 µg/kg
CC(O)c1cccc2cc([C@@H](O)CNC(C)(C)C)oc12 (stereo in doubt; form 1) | 19 µg/kg
CC(O)c1cccc2cc([C@H](O)CNC(C)(C)C)oc12 (stereo in doubt; form 1) | > 1000 µg/kg
CC(O)c1cccc2cc([C@@H](O)CNC(C)(C)C)oc12 (stereo in doubt; form 2) | 0.7 µg/kg
CC(O)c1cccc2cc([C@H](O)CNC(C)(C)C)oc12 (stereo in doubt; form 2) | 305 µg/kg
